Reference: patent US10597388B2, “Pyridazinone herbicides” (FMC CORPORATION, priority 2014, dated 2020)

Columns and labels:
Type in all cases: in vivo
[1] = test system: wheat (Triticum aestivum); assay: Test A greenhouse herbicide test, pre- and postemergence; conditions: Postemergence; for Wheat plant response rating: 0 is no effect, 100 is complete control
Procedure, shortened: (§1)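 Visual injury ratings, 0 (no effect) to 100 (complete control), versus untreated plants after roughly 10 d in a greenhouse. Compounds, formulated in a surfactant-containing non-phytotoxic solvent, were sprayed on loam–sand soil after sowing (pre) or on one- to two-leaf plants 2–10 cm tall (post).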

[2] = test system: ryegrass, Italian (Italian ryegrass, Lolium multiflorum); assay: as above
Procedure, shortened: as §1

[3] = test system: barnyardgrass (Echinochloa crus-galli); assay: as above
Procedure, shortened: as §1

[4] = test system: pigweed (Amaranthus retroflexus); assay: as above
Procedure, shortened: as §1

[5] = test system: foxtail, giant (giant foxtail, Setaria faberii); assay: as above
Procedure, shortened: as §1

corn (Zea mays) = assay: as above; conditions: Postemergence; for Corn plant response rating: 0 is no effect, 100 is complete control
Procedure, shortened: as §1

kochia (Kochia scoparia) = assay: as above
Procedure, shortened: as §1

[6] = test system: ragweed (common ragweed, Ambrosia elatior); assay: as above
Procedure, shortened: as §1

[7] = test system: velvetleaf (Abutilon theophrasti); assay: Test C greenhouse herbicide test, pre- and postemergence
Text: (§2) Seeds of plant species selected from blackgrass (Alopecurus myosuroides), ryegrass, Italian (Italian ryegrass, Lolium multiflorum), wheat (winter wheat, Triticum aestivum), galium (catchweed bedstraw, Galium aparine), corn (Zea mays), large crabgrass, large (large crabgrass, Digitaria sanguinalis), foxtail, giant (giant foxtail, Setaria faberii), johnsongrass (Sorghum halepense), lambsquarters (Chenopodium album), morningglory (Ipomoea coccinea), nutsedge, yellow (yellow nutsedge, Cyperus esculentus), pigweed (Amaranthus retroflexus), ragweed (common ragweed, Ambrosia elatior), soybean (Glycine max), barnyardgrass (Echinochloa crus-galli), oilseed rape (Brassica napus), waterhemp (common waterhemp, Amaranthus rudis), and velvetleaf (Abutilon theophrasti) were planted into a blend of loam soil and sand and treated preemergence with test chemicals formulated in a non-phytotoxic solvent mixture which included a surfactant.
(§3) At the same time, plants selected from these crop and weed species and also chickweed (common chickweed, Stellaria media), kochia (Kochia scoparia), and oat, wild (wild oat, Avena fatua), were planted in pots containing Redi-Earth® planting medium (Scotts Company, 14111 Scottslawn Road, Marysville, Ohio 43041) comprising spaghnum peat moss, vermiculite, wetting agent and starter nutrients and treated with postemergence applications of test chemicals formulated in the same manner. Plants ranged in height from 2 to 18 cm (1- to 4-leaf stage) for postemergence treatments. Treated plants and controls were maintained in a greenhouse for 13 to 15 d, after which time all species were compared to controls and visually evaluated. Plant response ratings, summarized in Table C, are based on a scale of 0 to 100 where 0 is no effect and 100 is complete control. A dash (-) response means no test result.

[8] = test system: barnyardgrass (Echinochloa crus-galli); assay: as above
Text: as §2, §3

[9] = test system: galium (catchweed bedstraw, Galium aparine); assay: as above
Text: as §2, §3

[10] = 125 g ai/ha, 0 to 100 scale where 0 is no effect and 100 is complete control
[11] = Postemergence, 125 g ai/ha, 0 to 100 scale where 0 is no effect and 100 is complete control
[12] = Postemergence, 500 g ai/ha, 0 to 100 scale, 0 is no effect, 100 is complete control
[13] = Preemergence, 125 g ai/ha, 0 to 100 scale where 0 is no effect and 100 is complete control
[14] = Preemergence, 500 g ai/ha, 0 to 100 scale, 0 no effect, 100 complete control
[15] = Postemergence, 125 g ai/ha, visual rating after approx. 10 d, 0 to 100 scale (0 no effect, 100 complete control)
[16] = 125 g ai/ha, visual rating after approx. 10 d, 0 to 100 scale (0 no effect, 100 complete control)
[17] = Postemergence, 31 g ai/ha, 0 to 100 scale (0 no effect, 100 complete control)
[18] = Postemergence, 125 g ai/ha, scale 0 to 100, 0 is no effect, 100 is complete control
[19] = Postemergence, 250 g ai/ha, scale 0 to 100, 0 no effect, 100 complete control, 13 to 15 d
[20] = Preemergence, 62 g ai/ha, scale 0 to 100, 0 is no effect, 100 is complete control
[21] = Preemergence, 125 g ai/ha, scale 0 to 100, 0 is no effect, 100 is complete control
[22] = Preemergence, 250 g ai/ha, scale 0 to 100 (0 no effect, 100 complete control)
[23] = postemergence, 62 g ai/ha, scale 0 to 100, 0 no effect, 100 complete control
[24] = Preemergence, 31 g ai/ha, scale 0 to 100, 0 is no effect, 100 is complete control
[25] = 125 g ai/ha, 0 to 100 scale, 0 no effect, 100 complete control
[26] = 500 g ai/ha, visual rating after approx. 10 d, 0 to 100 scale (0 no effect, 100 complete control)
[27] = Postemergence, 125 g ai/ha, 0 to 100 scale, 0 no effect, 100 complete control
[28] = Postemergence, 500 g ai/ha, visual rating after approx. 10 d, 0 to 100 scale (0 no effect, 100 complete control)
[29] = Preemergence, 125 g ai/ha, visual injury rating, 0 to 100 scale (0 no effect, 100 complete control), approx. 10 d
[30] = Preemergence, 500 g ai/ha, 0 to 100 scale where 0 is no effect and 100 is complete control
[31] = Postemergence, 31 g ai/ha, scale 0 to 100 (0 no effect, 100 complete control)
[32] = Postemergence, 62 g ai/ha, 0 to 100 scale (0 no effect, 100 complete control)
[33] = postemergence, 125 g ai/ha, scale 0 to 100, 0 no effect, 100 complete control

Structure (SMILES): CC(=O)Oc1c(C)nn(C)c(=O)c1-c1c(C)sc2c(C)cc(C)cc12 [Compound 27]
- Plant response rating, Wheat [1, 10]: 0
- Wheat plant response rating ([1]; 500 g ai/ha, 0 to 100 scale): 0
- Plant response rating, Ryegrass, Italian [2, 11]: 100
- Ryegrass, Italian plant response rating [2, 12]: 100
- Ryegrass, Italian plant response rating [2, 13]: 100
- Plant response rating, Ryegrass, Italian [2, 14]: 100
- Plant response rating, Barnyardgrass [3, 15]: 90
- Barnyardgrass plant response rating [3, 12]: 90
- Barnyardgrass plant response rating [3, 13]: 90
- Plant response rating, Barnyardgrass [3, 14]: 100
- Plant response rating, Pigweed [4, 15]: 90
- Pigweed plant response rating [4, 12]: 100
- Pigweed plant response rating [4, 13]: 100
- Plant response rating, Pigweed [4, 14]: 100
- Plant response rating, Foxtail, Giant [5, 15]: 90
- Foxtail, Giant plant response rating [5, 12]: 90
- Foxtail, Giant plant response rating [5, 13]: 90
- Plant response rating, Foxtail, Giant [5, 14]: 100
- Plant response rating, Corn (corn (Zea mays); [16]): 0
- Corn plant response rating (corn (Zea mays); 500 g ai/ha, 0 to 100 scale): 20
- Plant response rating, Kochia (kochia (Kochia scoparia); [15]): 70
- Kochia plant response rating (kochia (Kochia scoparia); [12]): 90
- Kochia plant response rating (kochia (Kochia scoparia); [13]): 40
- Plant response rating, Kochia (kochia (Kochia scoparia); [14]): 90
- Plant response rating, Ragweed [6, 15]: 100
- Ragweed plant response rating [6, 12]: 100
- Ragweed plant response rating [6, 13]: 90
- Plant response rating, Ragweed [6, 14]: 100
- Velvetleaf plant response rating [7, 17]: 80
- Plant response rating, Velvetleaf [7, 18]: 90
- Plant response rating, Velvetleaf [7, 19]: 95
- Plant response rating, Velvetleaf [7, 20]: 85
- Plant response rating, Velvetleaf [7, 21]: 85
- Velvetleaf plant response rating [7, 22]: 98
- Velvetleaf plant response rating [7, 23]: 85
- Barnyardgrass plant response rating [8, 17]: 15
- Plant response rating, Barnyardgrass [8, 18]: 25
- Plant response rating, Barnyardgrass [8, 19]: 50
- Plant response rating, Barnyardgrass [8, 24]: 55
- Plant response rating, Barnyardgrass [8, 20]: 80
- Plant response rating, Barnyardgrass [8, 21]: 90
- Barnyardgrass plant response rating [8, 22]: 90
- Barnyardgrass plant response rating [8, 23]: 20
- Galium plant response rating [9, 17]: 100
- Plant response rating, Galium [9, 18]: 100
- Plant response rating, Galium [9, 19]: 100
- Plant response rating, Galium [9, 24]: 90
- Plant response rating, Galium [9, 20]: 95
- Plant response rating, Galium [9, 21]: 95
- Galium plant response rating [9, 22]: 95
- Galium plant response rating [9, 23]: 100

Structure (SMILES): CC(=O)Oc1c(C)nn(C)c(=O)c1-c1c(C)sc2ccc(C)cc12 [Compound 25]
- Plant response rating, Wheat [1, 10]: 0
- Wheat plant response rating ([1]; 500 g ai/ha, 0 to 100 scale): 0
- Plant response rating, Ryegrass, Italian [2, 11]: 100
- Ryegrass, Italian plant response rating [2, 12]: 100
- Ryegrass, Italian plant response rating [2, 13]: 100
- Plant response rating, Ryegrass, Italian [2, 14]: 100
- Plant response rating, Barnyardgrass [3, 15]: 20
- Barnyardgrass plant response rating [3, 12]: 90
- Barnyardgrass plant response rating [3, 13]: 30
- Plant response rating, Barnyardgrass [3, 14]: 90
- Plant response rating, Pigweed [4, 15]: 90
- Pigweed plant response rating [4, 12]: 100
- Pigweed plant response rating [4, 13]: 100
- Plant response rating, Pigweed [4, 14]: 100
- Plant response rating, Foxtail, Giant [5, 15]: 90
- Foxtail, Giant plant response rating [5, 12]: 90
- Foxtail, Giant plant response rating [5, 13]: 90
- Plant response rating, Foxtail, Giant [5, 14]: 90
- Plant response rating, Corn (corn (Zea mays); [16]): 0
- Corn plant response rating (corn (Zea mays); 500 g ai/ha, 0 to 100 scale): 20
- Plant response rating, Kochia (kochia (Kochia scoparia); [15]): 100
- Kochia plant response rating (kochia (Kochia scoparia); [12]): 100
- Kochia plant response rating (kochia (Kochia scoparia); [13]): 90
- Plant response rating, Kochia (kochia (Kochia scoparia); [14]): 100
- Plant response rating, Ragweed [6, 15]: 100
- Ragweed plant response rating [6, 12]: 100
- Ragweed plant response rating [6, 13]: 90
- Plant response rating, Ragweed [6, 14]: 100
- Velvetleaf plant response rating [7, 17]: 70
- Plant response rating, Velvetleaf [7, 18]: 85
- Plant response rating, Velvetleaf [7, 19]: 98
- Plant response rating, Velvetleaf [7, 20]: 85
- Plant response rating, Velvetleaf [7, 21]: 90
- Velvetleaf plant response rating [7, 22]: 98
- Velvetleaf plant response rating [7, 23]: 80
- Barnyardgrass plant response rating [8, 17]: 15
- Plant response rating, Barnyardgrass [8, 18]: 20
- Plant response rating, Barnyardgrass [8, 19]: 25
- Plant response rating, Barnyardgrass [8, 24]: 0
- Plant response rating, Barnyardgrass [8, 20]: 30
- Plant response rating, Barnyardgrass [8, 21]: 70
- Barnyardgrass plant response rating [8, 22]: 85
- Barnyardgrass plant response rating [8, 23]: 20
- Galium plant response rating [9, 17]: 90
- Plant response rating, Galium [9, 18]: 100
- Plant response rating, Galium [9, 19]: 95
- Plant response rating, Galium [9, 24]: 90
- Plant response rating, Galium [9, 20]: 95
- Plant response rating, Galium [9, 21]: 95
- Galium plant response rating [9, 22]: 98
- Galium plant response rating [9, 23]: 95

Structure (SMILES): CC(=O)Oc1c(C)nn(C)c(=O)c1-c1c(C)cc(C)c2ccccc12 [Compound 153]
- Plant response rating, Wheat [1, 25]: 0
- Plant response rating, Wheat [1, 26]: 30
- Plant response rating, Ryegrass, Italian [2, 27]: 100
- Plant response rating, Ryegrass, Italian [2, 28]: 100
- Plant response rating, Ryegrass, Italian [2, 29]: 100
- Plant response rating, Ryegrass, Italian [2, 30]: 100
- Plant response rating, Barnyardgrass [3, 27]: 90
- Plant response rating, Barnyardgrass [3, 28]: 90
- Plant response rating, Barnyardgrass [3, 29]: 100
- Plant response rating, Barnyardgrass [3, 30]: 100
- Plant response rating, Pigweed [4, 27]: 80
- Plant response rating, Pigweed [4, 28]: 100
- Plant response rating, Pigweed [4, 29]: 100
- Plant response rating, Pigweed [4, 30]: 100
- Plant response rating, Foxtail, Giant [5, 27]: 90
- Plant response rating, Foxtail, Giant [5, 28]: 90
- Plant response rating, Foxtail, Giant [5, 29]: 100
- Plant response rating, Foxtail, Giant [5, 30]: 100
- Plant response rating, Corn (corn (Zea mays); [25]): 0
- Plant response rating, Corn (corn (Zea mays); [26]): 80
- Plant response rating, Kochia (kochia (Kochia scoparia); [27]): 40
- Plant response rating, Kochia (kochia (Kochia scoparia); [28]): 90
- Plant response rating, Kochia (kochia (Kochia scoparia); [29]): 80
- Plant response rating, Kochia (kochia (Kochia scoparia); [30]): 90
- Plant response rating, Ragweed [6, 27]: 80
- Plant response rating, Ragweed [6, 28]: 90
- Plant response rating, Ragweed [6, 29]: 80
- Plant response rating, Ragweed [6, 30]: 90
- Plant response rating, Velvetleaf [7, 31]: 85
- Velvetleaf plant response rating [7, 32]: 85
- Plant response rating, Velvetleaf [7, 19]: 95
- Plant response rating, Velvetleaf [7, 24]: 85
- Plant response rating, Velvetleaf [7, 20]: 90
- Plant response rating, Velvetleaf [7, 21]: 95
- Velvetleaf plant response rating [7, 22]: 90
- Velvetleaf plant response rating [7, 33]: 90
- Plant response rating, Barnyardgrass [8, 31]: 40
- Barnyardgrass plant response rating [8, 32]: 60
- Plant response rating, Barnyardgrass [8, 18]: 70
- Plant response rating, Barnyardgrass [8, 19]: 90
- Plant response rating, Barnyardgrass [8, 24]: 85
- Plant response rating, Barnyardgrass [8, 20]: 100
- Plant response rating, Barnyardgrass [8, 21]: 100
- Barnyardgrass plant response rating [8, 22]: 100
- Plant response rating, Galium [9, 31]: 95
- Galium plant response rating [9, 32]: 95
- Plant response rating, Galium [9, 19]: 98
- Plant response rating, Galium [9, 24]: 95
- Plant response rating, Galium [9, 20]: 98
- Plant response rating, Galium [9, 21]: 100
- Galium plant response rating [9, 22]: 100
- Galium plant response rating [9, 33]: 98
